Measured values reported in the OPERA property sets (Mansouri et al. 2018).

Q: For COC(=O)Nc1cccc([N+](=O)[O-])c1, which logP is on record?
A: 2

Q: With COC(=O)Nc1ccccc1OC as the compound, how does the logP read?
A: 1.84

Q: For COC(=O)Nc1ccccc1C, which logP is on record?
A: 1.69

Q: Which logP does the source give for COC(=O)Nc1ccccc1Br here?
A: 2.3

Q: Which logP does the source give for COC(=O)Nc1ccccc1Cl here?
A: 2.16

Q: With COC(=O)Nc1cccc(OC)c1 as the compound, how does the logP read?
A: 1.92

Q: With COC(=O)Nc1cccc(C(C)=O)c1 as the compound, how does the logP read?
A: 1.63

Q: For C#CCOC(=O)Nc1ccc(OCC)c(OCC)c1, which logP is on record?
A: 2.68

Q: For COC(=O)Nc1ccccc1, which logP is on record?
A: 1.75

Q: For CCOc1ccc(NC(=O)OC(CBr)CBr)cc1OCC, which logP is on record?
A: 3.5

Q: With CCc1cccc(NC(=O)OC)c1 as the compound, how does the logP read?
A: 2.74

Q: With COC(=O)Nc1ccccc1F as the compound, how does the logP read?
A: 1.66

Q: For CCOc1ccc(NC(=O)OC)cc1OCC, which logP is on record?
A: 2.1

Q: With CCCCOC(=O)Nc1ccc(OCC)c(OCC)c1 as the compound, how does the logP read?
A: 3.46

Q: For CCOc1ccccc1NC(=O)OC, which logP is on record?
A: 2.43

Q: Which logP does the source give for CCOc1ccc(NC(=O)OCCOC)cc1OCC here?
A: 2.27

Q: With COC(=O)Nc1cccc(C)c1 as the compound, how does the logP read?
A: 2.29

Q: For CCOc1ccc(NC(=O)OCC(C)C)cc1OCC, which logP is on record?
A: 3.36

Q: With COC(=O)Nc1ccc(Cl)cc1 as the compound, how does the logP read?
A: 2.55

Q: For CCOc1ccc(NC(=O)OCc2ccccc2)cc1OCC, which logP is on record?
A: 3.29

Q: With COC(=O)Nc1cccc(C#N)c1 as the compound, how does the logP read?
A: 1.77

Q: Which logP does the source give for COC(=O)Nc1ccc(C)cc1 here?
A: 2.29

Q: For CCOc1ccc(NC(=O)OC)cc1, which logP is on record?
A: 2.15

Q: With COC(=O)Nc1ccccc1C(F)(F)F as the compound, how does the logP read?
A: 2.09

Q: For CCCCc1ccc(NC(=O)OC)cc1, which logP is on record?
A: 3.69

Q: For COC(=O)Nc1ccc(OC)cc1, which logP is on record?
A: 1.73

Q: Which logP does the source give for COC(=O)Nc1ccccc1[N+](=O)[O-] here?
A: 2.1

Q: For CCCOC(=O)Nc1ccc(OCC)c(OCC)c1, which logP is on record?
A: 2.93

Q: For CCOc1ccc(NC(=O)OC(C)C)cc1OCC, which logP is on record?
A: 2.91

Q: With COC(=O)Nc1ccc(C#N)cc1 as the compound, how does the logP read?
A: 1.82

Q: With COC(=O)Nc1ccc([N+](=O)[O-])cc1 as the compound, how does the logP read?
A: 2.12

Q: For CCOc1cccc(NC(=O)OC)c1, which logP is on record?
A: 2.31

Q: For COC(=O)Nc1cccc(C(F)(F)F)c1, which logP is on record?
A: 2.74

Q: With COC(=O)Nc1cccc(I)c1 as the compound, how does the logP read?
A: 3.03

Q: Which logP does the source give for COC(=O)Nc1ccccc1I here?
A: 2.44

Q: With COC(=O)Nc1ccc(F)cc1 as the compound, how does the logP read?
A: 1.95

Q: With CCc1ccc(NC(=O)OC)cc1 as the compound, how does the logP read?
A: 2.72

Q: Which logP does the source give for CCOC(=O)Nc1ccc(OCC)c(OCC)c1 here?
A: 2.54

Q: For C=CCOC(=O)Nc1ccc(OCC)c(OCC)c1, which logP is on record?
A: 2.75

Q: For CCOc1ccc(NC(=O)OCCC#N)cc1OCC, which logP is on record?
A: 2.07

Q: Which logP does the source give for COC(=O)Nc1cccc(Br)c1 here?
A: 2.75
